Test results: publication PMC11240878, “Synthesis, enzyme inhibition assay, and molecular modeling study of novel pyrazolines linked to 4-methylsulfonylphenyl scaffold: antitumor activity and cell cycle analysis” (RSC Advances, 2024)
Several values for one entry are separate records, joined by “and”; a condition that tells them apart may be missing. Identical values can stand only once.

Tests used:
59 cancer cell lines = assay: NCI 59 cancer cell line panel, single dose; format: cell-based, human; conditions: 10 μM single dose; for MG% (mean growth percent): 59 cell lines
HL-60(TB) = assay: NCI single-dose GI%, leukemia; format: cell-based, human; conditions: 10.0 μM in one dose
MOLT-4 = assay: NCI single-dose GI%, leukemia; format: cell-based, human; conditions: MOLT-4, leukemia; 10.0 μM in one dose
RPMI-8226 = assay: NCI single-dose GI%, leukemia; format: cell-based, human; conditions: RPMI-8226, leukemia; 10.0 μM in one dose
A549/ATCC = assay: NCI single-dose GI%, NSC lung; format: cell-based, human; conditions: 10.0 μM in one dose
NCI-H226 = assay: NCI single-dose GI%, NSC lung; format: cell-based, human; conditions: 10.0 μM in one dose
NCI-H522 = assay: NCI single-dose GI%, NSC lung; format: cell-based, human; conditions: 10.0 μM in one dose
HT29 = assay: NCI single-dose GI%, colon; format: cell-based, human; conditions: 10.0 μM in one dose
SNB-75 = assay: NCI single-dose GI%, CNS; format: cell-based, human; conditions: SNB-75, CNS; 10.0 μM in one dose
SK-MEL-5 = assay: NCI single-dose GI%, melanoma; format: cell-based, human; conditions: SK-MEL-5, melanoma; 10.0 μM in one dose
UO-31 = assay: NCI single-dose GI%, renal; format: cell-based, human; conditions: UO-31, renal; 10.0 μM in one dose
PC-3 = assay: NCI single-dose GI%, prostate; format: cell-based, human; conditions: PC-3, prostate; 10.0 μM in one dose
MDA-MB-468 = assay: NCI single-dose GI%, breast; format: cell-based, human; conditions: MDA-MB-468, breast; 10.0 μM in one dose
MDA-MB-231 = assay: cells; conditions: Homo sapiens, MDA-MB-231, 48 h, read-out: In vitro cytotoxicity IC50
Method: (§1) The antitumor experiment was conducted on 59 human tumor cell lines derived from nine different human tissues, following the procedure of the Drug Evaluation Branch at the NCI, Bethesda, MD.[33]

leukemia HL-60 = assay: cells; conditions: Homo sapiens, HL-60, 48 h, read-out: In vitro cytotoxicity IC50
Method: as §1

in vitro = conditions: human
Method: (§2) A normal fibroblast-like fetal lung cell line (WI-38) was used to further investigate the therapeutic safety of the newly synthesized hybrids and evaluate their selective cytotoxicity toward normal and tumor cells.[33,77]
as §1

[1] = test system: WI-38 normal fibroblast cells; assay: in vitro; conditions: ratio of WI38 IC50 to cancer cell IC50 values
Method: as §2, §1

[2] = test system: breast adenocarcinoma MCF-7; assay: cells; conditions: Homo sapiens, MCF7, 48 h, read-out: In vitro cytotoxicity IC50, MCF-7; MTT, 48 h drug exposure; mean ± SD of three experiments
K-562 = assay: NCI single-dose GI%, leukemia; format: cell-based, human; conditions: K-562, leukemia; 10.0 μM in one dose
HOP-62 = assay: NCI single-dose GI%, NSC lung; format: cell-based, human; conditions: HOP-62, NSC lung; 10.0 μM in one dose
UACC-257 = assay: NCI single-dose GI%, melanoma; format: cell-based, human; conditions: UACC-257, melanoma; 10.0 μM in one dose
CAKI-1 = assay: NCI single-dose GI%, renal; format: cell-based, human; conditions: CAKI-1, renal; 10.0 μM in one dose
MCF7 = assay: NCI single-dose GI%, breast; format: cell-based, human; conditions: 10.0 μM in one dose
BT-549 = assay: NCI single-dose GI%, breast; format: cell-based, human; conditions: BT-549, breast; 10.0 μM in one dose
T-47D = assay: NCI single-dose GI%, breast; format: cell-based, human; conditions: 10.0 μM in one dose
SR = assay: NCI single-dose GI%, leukemia; format: cell-based, human; conditions: 10.0 μM in one dose
EKVX = assay: NCI single-dose GI%, NSC lung; format: cell-based, human; conditions: 10.0 μM in one dose
HCT-116 = assay: NCI single-dose GI%, colon; format: cell-based, human; conditions: HCT-116, colon; 10.0 μM in one dose
UACC-62 = assay: NCI single-dose GI%, melanoma; format: cell-based, human; conditions: UACC-62, melanoma; 10.0 μM in one dose
SK-OV-3 = assay: NCI single-dose GI%, ovarian; format: cell-based, human; conditions: SK-OV-3, ovarian; 10.0 μM in one dose
MDA-MB-231/ATCC = assay: NCI single-dose GI%, breast; format: cell-based, human; conditions: 10.0 μM in one dose

Compound | melting point | PCE (positive cytotoxic effect: ratio of cell lines with growth inhibition >10% to total cell lines) (59 cancer cell lines) | MG% (mean growth percent) (59 cancer cell lines) | GI% (HL-60(TB)) | GI% (MOLT-4) | GI% (RPMI-8226) | GI% (A549/ATCC) | GI% (NCI-H226) | GI% (NCI-H522) | GI% (HT29) | GI% (SNB-75) | GI% (UO-31) | GI% (PC-3) | GI% (K-562) | GI% (HOP-62) | GI% (UACC-257) | GI% (CAKI-1) | GI% (MCF7) | GI% (T-47D) | GI% (EKVX) | also measured
COc1ccc(C2=NN(C(=O)c3ccc(S(C)(=O)=O)cc3)C(c3ccccc3)C2)cc1 (centres unmarked) [Compound 18k, (3-(4-Methoxyphenyl)-5-phenyl-4,5-dihydro-1H-pyrazol-1-yl)(4-(methylsulfonyl)phenyl)methanone] | 226 to 228 °C | ≤ 12/59 and 12/59 | 97.49% | 18% | 27% | 11% | 13% | 14% | 35% | 20% | 11% | 15% | 21% | – | – | – | – | – | – | – | GI% (SK-MEL-5): 14%; GI% (MDA-MB-468): 16%
COc1cccc2c1C(=O)c1c(O)c3c(c(O)c1C2=O)C[C@@](O)(C(=O)CO)C[C@@H]3O[C@H]1C[C@H](N)[C@H](O)[C@H](C)O1 [DOX, doxorubicin, reference compound] | – | – | – | – | – | – | – | – | – | – | – | – | – | – | – | – | – | – | – | – | IC50 (MDA-MB-231): 5.1 ± 0.31 µM; IC50 (leukemia HL-60): 6.01 ± 0.2 µM; IC50 at 48 h (in vitro): 7.12 ± 0.7 µM; Mean tumor selectivity index (WI38/HL60, MCF7, and MDA-MB-231) [1]: 1.36; IC50 [2]: 4.77 ± 0.4 µM
CS(=O)(=O)c1ccc(C(=O)N2N=C(c3ccccc3)CC2c2ccc(Cl)cc2)cc1 (centres unmarked) [Compound 18b, (5-(4-Chlorophenyl)-3-phenyl-4,5-dihydro-1H-pyrazol-1-yl)(4-(methylsulfonyl)phenyl)methanone] | 321 to 323 °C | 22/59 | 92.03% | 22% | 17% | 11% | 13% | 15% | 27% | 13% | 13% | 32% | 22% | 32% | 29% | – | 18% | 13% | 31% | 21% | GI% (HCT-116): 26%; GI% (UACC-62): 14%; GI% (SK-OV-3): 26%; GI% (MDA-MB-231/ATCC): 11%; GI% (BT-549): 14%; GI% (MDA-MB-468): 12%
COc1ccccc1C1CC(c2ccccc2)=NN1C(=O)c1ccc(S(C)(=O)=O)cc1 (centres unmarked) [Compound 18i, (5-(2-Methoxyphenyl)-3-phenyl-4,5-dihydro-1H-pyrazol-1-yl)(4-(methylsulfonyl)phenyl)methanone] | 236 to 238 °C | ≤ 12/59 and 12/59 | 96.46% | 46% | 28% | – | 35% | 13% | 29% | 17% | – | 28% | – | – | 20% | 36% | 23% | – | 17% | 12% | –
CS(=O)(=O)c1ccc(C(=O)N2N=C(c3ccc(F)cc3)CC2c2ccc(F)cc2)cc1 (centres unmarked) [Compound 18e, (3,5-Bis(4-fluorophenyl)-4,5-dihydro-1H-pyrazol-1-yl)(4-(methylsulfonyl)phenyl)methanone] | 330 to 333 °C | 15/59 | 94.18% | 48% | 35% | 12% | – | 12% | 15% | – | 18% | 22% | 15% | 29% | 14% | – | 17% | 13% | 17% | 12% | GI% (HCT-116): 17%
COc1ccc(C2CC(c3ccccc3)=NN2C(=O)c2ccc(S(C)(=O)=O)cc2)cc1 (centres unmarked) [Compound 18j, (5-(4-Methoxyphenyl)-3-phenyl-4,5-dihydro-1H-pyrazol-1-yl)(4-(methylsulfonyl)phenyl)methanone] | 258 to 260 °C | 10/59 | 97.16% | 35% | 26% | – | 24% | 11% | 14% | – | 12% | – | – | 13% | – | 14% | – | – | 16% | 12% | –
CN(C)C/C=C/C(=O)Nc1cc2c(Nc3ccc(F)c(Cl)c3)ncnc2cc1O[C@H]1CCOC1 [Afatinib, reference compound] | – | – | – | – | – | – | – | – | – | – | – | – | – | – | – | – | – | – | – | – | IC50 (MDA-MB-231): 8.05 ± 0.72 µM; IC50 (leukemia HL-60): 6.5 ± 0.77 µM; IC50 at 48 h (in vitro): 44 ± 1.9 µM; Mean tumor selectivity index (WI38/HL60, MCF7, and MDA-MB-231) [1]: 5.93; IC50 [2]: 7.91 ± 0.66 µM

Further lines, with some results ahead:

melting point | Compound | PCE (positive cytotoxic effect: ratio of cell lines with growth inhibition >10% to total cell lines) (59 cancer cell lines) | MG% (mean growth percent) (59 cancer cell lines) | GI% (HL-60(TB)) | GI% (MOLT-4) | GI% (RPMI-8226) | GI% (A549/ATCC) | GI% (NCI-H226) | GI% (NCI-H522) | GI% (HT29) | GI% (SNB-75) | GI% (UO-31) | GI% (PC-3) | GI% (K-562) | GI% (HOP-62) | GI% (UACC-257) | GI% (CAKI-1) | GI% (MCF7) | GI% (T-47D) | GI% (EKVX) | also measured
198 to 200 °C | COc1ccc(C2=NN(C(=O)c3ccc(S(C)(=O)=O)cc3)C(c3ccc(OC)cc3)C2)cc1 (centres unmarked) [Compound 18l, (3,5-Bis(4-methoxyphenyl)-4,5-dihydro-1H-pyrazol-1-yl)(4-(methylsulfonyl)phenyl)methanone] | 14/59 | 95.78% | 47% | 33% | – | 40% | – | 34% | 19% | 11% | 16% | – | 18% | 11% | 45% | 14% | 11% | 11% | – | GI% (BT-549): 13%
268 to 270 °C | COc1ccc(C2CC(c3ccc(OC)cc3OC)=NN2C(=O)c2ccc(S(C)(=O)=O)cc2)cc1 (centres unmarked) [Compound 18o, (3-(2,4-Dimethoxyphenyl)-5-(4-methoxyphenyl)-4,5-dihydro-1H-pyrazol-1-yl)(4-(methylsulfonyl)phenyl)methanone] | 15/59 | 94.17% | 51% | 40% | – | 31% | – | 43% | 17% | 15% | 19% | – | 32% | 18% | 38% | 12% | – | 18% | – | GI% (SR): 11%; GI% (SK-MEL-5): 12%; GI% (BT-549): 11%
